The results in this text go back to ChEMBL document CHEMBL4052746, “Flavonoid glycosides from Barringtonia acutangula” (Bioorg Med Chem Lett, 2017).

Broadly, the IC50 is the point on the concentration scale where inhibition reaches its midpoint.

The subject of series [1] is RAW264.7. Kind of series: Antiinflammatory activity in mouse RAW264.7 cells assessed as inhibition of LPS-induced NO production pretreated for 30 mins followed by LPS stimulation for 24 hrs by Griess assay. It counts as functional, cell-based. Background: Nitrite, measured by Griess reagent, commonly stands in for NO production.
For series [2], the system named is RAW264.7. Kind of series: Cytotoxicity against mouse RAW264.7 cells assessed as reduction in cell viability by MTT assay. Format: cell-based. On the technique in general: Formazan colour is commonly taken as a measure of viable cells.

Regarding `O=C(OC[C@H]1O[C@@H](Oc2c(-c3ccc(O)c(O)c3)oc3cc(O)cc(O)c3c2=O)[C@H](O)[C@@H](O)[C@H]1O)c1ccc(O)cc1`, the IC50 with RAW264.7 [1] came to 20 µM. Besides, the Activity result with RAW264.7 [2] was “Non-Toxic”.
